From PMC4183567, “Cysteine Transport through Excitatory Amino Acid Transporter 3 (EAAT3)” (PLoS ONE, 2014)

Key:
EAAT3 = target: T1, EAAT3 (Homo sapiens, UniProt P43005); assay: Substrate-gated anion (NO3) currents in Xenopus oocytes expressing EAAT3; format: cell-based; conditions: 1 mM substrate, NaNO3, oocytes expressing EAAT3 alone, Figure 7C, n = 6
T1 sequence (P43005 1-524): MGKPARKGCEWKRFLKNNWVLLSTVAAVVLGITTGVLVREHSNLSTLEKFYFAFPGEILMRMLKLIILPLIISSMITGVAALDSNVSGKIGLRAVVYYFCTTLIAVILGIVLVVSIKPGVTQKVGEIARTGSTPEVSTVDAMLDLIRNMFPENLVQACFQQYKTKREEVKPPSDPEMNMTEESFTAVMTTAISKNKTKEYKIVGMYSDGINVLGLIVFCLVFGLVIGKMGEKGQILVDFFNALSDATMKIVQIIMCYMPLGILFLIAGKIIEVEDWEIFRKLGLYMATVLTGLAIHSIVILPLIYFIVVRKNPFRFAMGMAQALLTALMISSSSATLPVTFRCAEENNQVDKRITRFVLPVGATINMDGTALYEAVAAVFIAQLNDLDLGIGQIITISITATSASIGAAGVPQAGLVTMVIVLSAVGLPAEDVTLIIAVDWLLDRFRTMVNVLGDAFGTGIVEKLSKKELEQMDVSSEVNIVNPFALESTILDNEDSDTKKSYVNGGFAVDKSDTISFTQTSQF
Procedure: (§1) mRNA from linearized pOTV-EAAT1, pOTV-EAAT2 and pOTV-EAAT3 was generated as previously described and resuspended in RNAase-free water and used for oocytes injections. Xenopus oocytes where injected with 50 nl of mRNA and incubated at 18°C in 96 mM NaCl, 2 mM KCl, 1.8 mM CaCl2, 1.0 mM MgCl2, 5 mM HEPES, pH 7.4 (ND96) supplemented with 2.5 mM Sodium Pyruvate and Gentamicyn for 2 to 3 days prior to using in electrophysiological recordings and radio-labeled transport experiments.
(§2) Oocytes were held at −60 mV, and currents elicited by 200 ms voltage steps between −120 mV and +60 mV were filtered at 2 kHz (−3dB) and digitalized with a sampling rate of 10 kHz using a Digidata AD/DA converter (Molecular Devices, Sunnyvale, CA, USA). Borosilicate pipets where filled with 3 M KCl and typical resistances where 0.2 to 1 MΩ. Transport currents were determined at −60 mV in a gluconate-based ND96 solution. In order to dialyze internal chloride, oocytes were incubated 12 to 24 hours in the gluconate solution. Anion currents were determined at positive potentials (+60 mV) after exchanging the external solution to NO3-based ND96 (replacement of 96 mM NaCl with 96 mM NaNO3) solution in the absence or in the presence of 1 mM external substrates. In experiments using cysteine as a substrate, all solutions contained 2 mM dithiothreitol (DTT). Data were analyzed with a combination of pClamp 9.2 (Axon Instrument) and Sigma Plot (Jandel Scientific, San Rafael, CA, USA). Whole cell current amplitudes are shown without any subtraction protocol. Current-voltage relationships were constructed by plotting the isochronal current 6 ms after the voltage step versus the membrane potential. All data are given as the mean ± standard deviation of the mean (SDM). For evaluation the statistical relevance, the Student’s t-Test was used with an α of 0.05.

EAATs = conditions: very low affinity; cited from earlier work
EAAT3 and ASCT1 [1] = target: T2, EAAT3 and ASCT1 (Homo sapiens, UniProt P43005); assay: Release of preloaded [3H]-L-glutamate from Xenopus oocytes co-expressing EAAT3 and ASCT1; format: cell-based; conditions: 1 mM extracellular substrate, data not shown
T2 construct: expressed in transfected cells; host or cells: Xenopus oocytes
T2 sequence (P43005 1-524): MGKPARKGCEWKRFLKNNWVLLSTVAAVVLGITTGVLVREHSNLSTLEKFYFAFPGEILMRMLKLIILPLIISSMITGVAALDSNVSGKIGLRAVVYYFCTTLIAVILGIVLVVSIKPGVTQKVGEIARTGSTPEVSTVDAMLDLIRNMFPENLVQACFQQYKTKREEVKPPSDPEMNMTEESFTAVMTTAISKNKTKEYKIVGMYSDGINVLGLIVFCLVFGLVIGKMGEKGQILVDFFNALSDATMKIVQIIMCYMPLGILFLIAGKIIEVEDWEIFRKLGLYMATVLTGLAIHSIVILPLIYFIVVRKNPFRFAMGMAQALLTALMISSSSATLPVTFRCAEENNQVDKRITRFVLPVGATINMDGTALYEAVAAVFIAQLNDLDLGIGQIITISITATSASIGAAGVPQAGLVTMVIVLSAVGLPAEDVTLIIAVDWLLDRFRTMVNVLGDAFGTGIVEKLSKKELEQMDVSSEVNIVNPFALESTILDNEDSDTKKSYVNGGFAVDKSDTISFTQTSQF
Procedure: as §1
(§3) Oocytes were washed 3 times in ND96 buffer followed by incubation for 10 min with non-radiolabeled substrates as indicated. The supernatant was removed and collected for scintillation counting, while the oocytes were lysed in 1% sodium dodecylsulfate (SDS). The oocytes lysate and supernatant were counted separately by liquid scintillation counting to determine both retained and released radioactivity respectively. Percent of released radioactivity was determined as a function of the released/(retained + released).

EAAT3 and ASCT1 [2] = assay: Substrate-gated NO3 currents in Xenopus oocytes co-expressing EAAT3 and ASCT1; format: cell-based, human; conditions: 1 mM substrate, oocytes co-expressing EAAT3 and ASCT1, n = 4
Procedure: as §1
as §2, with “In experiments using cysteine as a substrate, all solutions contained 2 mM dithiothreitol (DTT).” left out, “Whole cell current amplitudes are shown without any subtraction protocol. Current-voltage relationships were constructed by plotting the isochronal current 6 ms after the voltage step versus the membrane potential. All data are given as the mean ± standard deviation of the mean (SDM). For evaluation the statistical relevance, the Student’s t-Test was used with an α of 0.05.” left out

EAAT3 and ASCT1 [3] = assay: Release of preloaded [35S]-L-cysteine from Xenopus oocytes co-expressing EAAT3 and ASCT1; format: cell-based, human; conditions: 10 min
Procedure: mRNA from linearized pOTV-EAAT1, pOTV-EAAT2 and pOTV-EAAT3 was generated as previously described and resuspended in RNAase-free water and used for oocytes injections.
as §3

[4] = substrate: N[C@@H](CCC(=O)O)C(=O)O; assay: cells, lysate or membranes; conditions: other: slope normalized to 1 mM glutamate, 0.5 µM to 2 mM glutamate; pH 7.35; 37.0 °C
[5] = substrate: N[C@@H](CCC(=O)O)C(=O)O; assay: cells, lysate or membranes; format: cell-based, human; conditions: other: similarly transfected HEK293 cells
Procedure: For radiolabeled transport experiments, 2×10^6 cells were transfected in 1 mL of Opti-Mem (Life Technologies) using 6 µL of Lipofectamine 2000 (Invitrogen) with 1 µg pCMV-EAAT2 or pCMV-EAAT3 DNA and plated at 5×10^4 cells/well in 24 well Costar (Corning) plates with 0.5 mL DMEM culture media prepared as above. Following transfection and plating, cells were cultured 2–3 days prior to [^3H]-L-Glutamate transport experiments.

[6] = substrate: N[C@@H](C[SeH])C(=O)O; assay: Two-electrode voltage clamp transport currents in Xenopus oocytes expressing EAAT3; format: cell-based, human; conditions: other: -60 mV, normalized transport current vs concentration, n = 6; pH 7.4; 18.0 °C
Procedure: as §1
as §2, with “In experiments using cysteine as a substrate, all solutions contained 2 mM dithiothreitol (DTT).” left out, “Whole cell current amplitudes are shown without any subtraction protocol. Current-voltage relationships were constructed by plotting the isochronal current 6 ms after the voltage step versus the membrane potential. All data are given as the mean ± standard deviation of the mean (SDM). For evaluation the statistical relevance, the Student’s t-Test was used with an α of 0.05.” left out

N[C@@H](CO)C(=O)O [serine, L-serine]
average anion current amplitude at +60 mV (EAAT3): 0.60±0.05 µA | affinity for the transporters (EAATs): > 1 mM | release of loaded [3H]-L-glutamate (EAAT3 and ASCT1 [1]): did not induce significant release | macroscopic anion current amplitude at +60 mV (EAAT3 and ASCT1 [2]): 0.6±0.07 µA | release of preloaded [35S]-L-cysteine (EAAT3 and ASCT1 [3]; 300 µM extracellular substrate): 10% | release of preloaded [35S]-L-cysteine (EAAT3 and ASCT1 [3]; 1 mM extracellular substrate): 20%

B1: EAAT3 (Homo sapiens) (protein)
chain: MGKPARKGCEWKRFLKNNWVLLSTVAAVVLGITTGVLVREHSNLSTLEKFYFAFPGEILMRMLKLIILPLIISSMITGVAALDSNVSGKIGLRAVVYYFCTTLIAVILGIVLVVSIKPGVTQKVGEIARTGSTPEVSTVDAMLDLIRNMFPENLVQACFQQYKTKREEVKPPSDPEMNMTEESFTAVMTTAISKNKTKEYKIVGMYSDGINVLGLIVFCLVFGLVIGKMGEKGQILVDFFNALSDATMKIVQIIMCYMPLGILFLIAGKIIEVEDWEIFRKLGLYMATVLTGLAIHSIVILPLIYFIVVRKNPFRFAMGMAQALLTALMISSSSATLPVTFRCAEENNQVDKRITRFVLPVGATINMDGTALYEAVAAVFIAQLNDLDLGIGQIITISITATSASIGAAGVPQAGLVTMVIVLSAVGLPAEDVTLIIAVDWLLDRFRTMVNVLGDAFGTGIVEKLSKKELEQMDVSSEVNIVNPFALESTILDNEDSDTKKSYVNGGFAVDKSDTISFTQTSQF
notes: expressed in transfected cells; host or cells: HEK293
Km [4]: 30 µM | Km [5]: 70 µM | Km [6]: 7.14 ± 0.3 µM
